Laboratory results published in PubChem BioAssay AID248 (DTP/NCI, 2004).
“And” between values parts separate entries of the source, which are not always exact repeats. Equal entries are not always repeated. Toxic doses and inconclusive results are not listed. No stated cut-off is given here; in the data, active means T/C of 150% or more; inactive means T/C below 125%.

Tested on: L1210 leukemia ip in BDF1 mice, survival T/C
Experiment: NCI In Vivo Anticancer Drug Screen. Data for tumor model L1210 Leukemia (intraperitoneal) in B6D2F1 (BDF1) mice
Details: endpoint: mean survival time, higher = longer survival
How it was run: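 Transplanted-tumor mice were given test agent; controls received vehicle only. Survival readings from the two groups were divided (treated over control).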

Measured: T/C

O=C(Nc1ccc(C2=NCCN2)cc1)c1ccc(C(=O)Nc2ccc(C3=NCCN3)cc2)c(Cl)c1
active: dose: 8.0 mg/kg/injection, schedule: Q01DX Z (ip), vehicle: saline 188 % of control | dose: 11.0 mg/kg/injection, schedule: Q02DX010 (ip), vehicle: carboxymethylcellulose (CMC) 181 % of control | dose: 15.0 mg/kg/injection, schedule: Q01DX010 (ip), vehicle: other 166 % of control | dose: 15.0 mg/kg/injection, schedule: Q01DX015 (ip), vehicle: carboxymethylcellulose (CMC) 169 % of control and 171 % of control | dose: 16.0 mg/kg/injection, schedule: Q01DX010 (ip), vehicle: water 156 % of control | dose: 16.0 mg/kg/injection, schedule: Q01DX Z (ip), vehicle: saline 173 % of control | dose: 22.5 mg/kg/injection, schedule: Q01DX010 (ip), vehicle: other 178 % of control | dose: 24.0 mg/kg/injection, schedule: Q02DX010 (ip), vehicle: carboxymethylcellulose (CMC) 168 % of control | dose: 26.0 mg/kg/injection, schedule: Q02DX008 (ip), vehicle: carboxymethylcellulose (CMC) 168 % of control | dose: 26.0 mg/kg/injection, schedule: Q02DX010 (ip), vehicle: carboxymethylcellulose (CMC) 169 % of control and 182 % of control | dose: 32.0 mg/kg/injection, schedule: Q01DX Z (sc), vehicle: carboxymethylcellulose (CMC) 185 % of control | dose: 33.7 mg/kg/injection, schedule: Q01DX010 (ip), vehicle: other 167 % of control | dose: 39.0 mg/kg/injection, schedule: Q02DX008 (ip), vehicle: carboxymethylcellulose (CMC) 184 % of control and 192 % of control | dose: 39.0 mg/kg/injection, schedule: Q02DX010 (ip), vehicle: other 167 % of control | dose: 48.0 mg/kg/injection, schedule: Q01DX010 (ip), vehicle: water 157 % of control | dose: 50.0 mg/kg/injection, schedule: Q02DX004 (im), vehicle: olive oil, sesame oil, peanut oil 156 % of control | dose: 53.6 mg/kg/injection, schedule: Q## X032 (ip), vehicle: carboxymethylcellulose (CMC) 162 % of control | dose: 54.0 mg/kg/injection, schedule: Q02DX010 (ip), vehicle: carboxymethylcellulose (CMC) 181 % of control | dose: 54.0 mg/kg/injection, schedule: Q02DX010 (ip), vehicle: other 157 % of control | dose: 54.0 mg/kg/injection, schedule: Q## X032 (ip), vehicle: carboxymethylcellulose (CMC) 153 % of control | dose: 58.5 mg/kg/injection, schedule: Q02DX008 (ip), vehicle: carboxymethylcellulose (CMC) 166 % of control | dose: 58.7 mg/kg/injection, schedule: Q02DX010 (ip), vehicle: carboxymethylcellulose (CMC) 162 % of control | dose: 67.0 mg/kg/injection, schedule: Q## X004 (ip), vehicle: carboxymethylcellulose (CMC) 157 % of control and 161 % of control | dose: 80.0 mg/kg/injection, schedule: Q## X032 (ip), vehicle: carboxymethylcellulose (CMC) 163 % of control and 178 % of control and 188 % of control | dose: 96.0 mg/kg/injection, schedule: Q01DX001 (ip), vehicle: carboxymethylcellulose (CMC) 156 % of control | dose: 96.0 mg/kg/injection, schedule: Q01DX001 (ip), vehicle: other 162 % of control | dose: 120.0 mg/kg/injection, schedule: Q## X032 (ip), vehicle: carboxymethylcellulose (CMC) 180 % of control and 181 % of control
inactive: dose: 1.8 mg/kg/injection, schedule: Q01DX009 (ip), vehicle: Klucel (hydroxypropylcellulose) (HPC) 100 % of control and 105 % of control | dose: 2.0 mg/kg/injection, schedule: Q01DX010 (ip), vehicle: other 94 % of control and 101 % of control | dose: 2.0 mg/kg/injection, schedule: Q01DX Z (ip), vehicle: saline 103 % of control | dose: 2.0 mg/kg/injection, schedule: Q01DX Z (sc), vehicle: carboxymethylcellulose (CMC) 110 % of control | dose: 2.5 mg/kg/injection, schedule: Q04DX002 (ip), vehicle: Klucel (hydroxypropylcellulose) (HPC) 95 % of control | dose: 3.0 mg/kg/injection, schedule: Q03DX Z (ip), vehicle: saline 114 % of control | dose: 3.5 mg/kg/injection, schedule: Q01DX009 (ip), vehicle: Klucel (hydroxypropylcellulose) (HPC) 107 % of control and 115 % of control | dose: 4.0 mg/kg/injection, schedule: Q01DX010 (ip), vehicle: other 107 % of control and 117 % of control | dose: 4.0 mg/kg/injection, schedule: Q01DX Z (sc), vehicle: carboxymethylcellulose (CMC) 110 % of control | dose: 5.0 mg/kg/injection, schedule: Q04DX002 (ip), vehicle: Klucel (hydroxypropylcellulose) (HPC) 95 % of control | dose: 6.0 mg/kg/injection, schedule: Q03DX Z (ip), vehicle: saline 118 % of control | dose: 6.7 mg/kg/injection, schedule: Q01DX010 (ip), vehicle: other 124 % of control | dose: 6.7 mg/kg/injection, schedule: Q01DX015 (ip), vehicle: carboxymethylcellulose (CMC) 116 % of control | dose: 7.8 mg/kg/injection, schedule: Q02DX010 (ip), vehicle: carboxymethylcellulose (CMC) 117 % of control | dose: 10.0 mg/kg/injection, schedule: Q01DX015 (ip), vehicle: carboxymethylcellulose (CMC) 119 % of control | dose: 12.5 mg/kg/injection, schedule: Q02DX004 (im), vehicle: olive oil, sesame oil, peanut oil 116 % of control and 119 % of control | dose: 13.0 mg/kg/injection, schedule: Q## X004 (ip), vehicle: carboxymethylcellulose (CMC) 105 % of control and 106 % of control | dose: 17.4 mg/kg/injection, schedule: Q02DX008 (ip), vehicle: carboxymethylcellulose (CMC) 121 % of control | dose: 20.0 mg/kg/injection, schedule: Q01DX001 (ip), vehicle: saline 114 % of control | dose: 20.0 mg/kg/injection, schedule: Q## X004 (ip), vehicle: carboxymethylcellulose (CMC) 103 % of control and 114 % of control | dose: 25.0 mg/kg/injection, schedule: Q01DX001 (im), vehicle: steriod suspending solution 103 % of control | dose: 28.0 mg/kg/injection, schedule: Q07DX Z (ip), vehicle: saline 121 % of control | dose: 29.0 mg/kg/injection, schedule: Q01DX001 (ip), vehicle: carboxymethylcellulose (CMC) 122 % of control | dose: 29.0 mg/kg/injection, schedule: Q01DX001 (ip), vehicle: other 109 % of control | dose: 30.0 mg/kg/injection, schedule: Q01DX001 (ip), vehicle: carboxymethylcellulose (CMC) 116 % of control and 118 % of control | dose: 30.0 mg/kg/injection, schedule: Q## X004 (ip), vehicle: carboxymethylcellulose (CMC) 113 % of control and 115 % of control | dose: 39.0 mg/kg/injection, schedule: Q01DX015 (ip), vehicle: carboxymethylcellulose (CMC) 119 % of control | dose: 40.0 mg/kg/injection, schedule: Q01DX001 (ip), vehicle: saline 106 % of control | dose: 42.0 mg/kg/injection, schedule: Q01DX001 (ip), vehicle: carboxymethylcellulose (CMC) 122 % of control | dose: 42.0 mg/kg/injection, schedule: Q01DX001 (ip), vehicle: other 117 % of control | dose: 44.0 mg/kg/injection, schedule: Q01DX001 (ip), vehicle: carboxymethylcellulose (CMC) 113 % of control | dose: 48.0 mg/kg/injection, schedule: Q01DX001 (ip), vehicle: carboxymethylcellulose (CMC) 113 % of control | dose: 48.4 mg/kg/injection, schedule: Q01DX001 (ip), vehicle: carboxymethylcellulose (CMC) 104 % of control | dose: 50.0 mg/kg/injection, schedule: Q01DX010 (sc), vehicle: olive oil, sesame oil, peanut oil 123 % of control | dose: 50.0 mg/kg/injection, schedule: Q01DX015 (ip), vehicle: carboxymethylcellulose (CMC) 100 % of control and 124 % of control | dose: 56.0 mg/kg/injection, schedule: Q01DX009 (ip), vehicle: Klucel (hydroxypropylcellulose) (HPC) 93 % of control | dose: 56.0 mg/kg/injection, schedule: Q07DX Z (ip), vehicle: saline 123 % of control | dose: 62.5 mg/kg/injection, schedule: Q01DX010 (oral), vehicle: other 113 % of control | dose: 74.0 mg/kg/injection, schedule: Q01DX001 (ip), vehicle: carboxymethylcellulose (CMC) 120 % of control | dose: 80.0 mg/kg/injection, schedule: Q01DX001 (ip), vehicle: saline 119 % of control | dose: 81.0 mg/kg/injection, schedule: Q02DX010 (ip), vehicle: carboxymethylcellulose (CMC) 106 % of control | dose: 100.0 mg/kg/injection, schedule: Q01DX010 (sc), vehicle: olive oil, sesame oil, peanut oil 93 % of control | dose: 112.0 mg/kg/injection, schedule: Q07DX Z (ip), vehicle: saline 121 % of control | dose: 125.0 mg/kg/injection, schedule: Q01DX010 (oral), vehicle: other 107 % of control | dose: 180.0 mg/kg/injection, schedule: Q## X032 (ip), vehicle: carboxymethylcellulose (CMC) 94 % of control | dose: 250.0 mg/kg/injection, schedule: Q01DX010 (oral), vehicle: other 111 % of control
